Experimental data published in patent publication US12338483B2, “Compositions and methods for logic-gated profiling of biologic activity” (Georgia Tech Research Corporation, priority 2019, dated 2025).
Bridge positions count the residues as written; N and C are the ends. Square brackets hold non-standard residues; d marks the D form. Ends that are not written are not given here.

How the values were obtained:
[1] = system: GzmB and MMPs; assay: Cleavage assay of GzmB/MMP AND-gate sensor with each MMP with and without GzmB; assay type: biochemical; conditions: sensor 5 μM; 300 nM GzmB and/or 100 nM different MMPs; 1.5 hours; all three MMPs; FIG. 20
Description: Then a cleavage assay was performed with the GzmB/MMP AND-gate sensor, testing the probe with each MMP with and without GzmB (FIG. 20).
(§1) FIGS. 20-21 show mean change in fluorescence (7D, kinetic trace) after incubation of GzmB/MMP AND-gate sensor (5 μM) with (7C) 300 nM GzmB and/or 100 nM different MMP's or (7D) 300 nM GzmB and 100 nM West Nile Virus NS3 protease, Tobacco Etch Virus protease, or MMP8 for 1.5 hours, n=3.

[2] = biological target: T1, GzmB and Tobacco Etch Virus protease (Homo sapiens, UniProt P10144); assay: Incubation of GzmB/MMP AND-gate sensor with GzmB and Tobacco Etch Virus protease; assay type: biochemical; conditions: sensor 5 μM; 300 nM GzmB and 100 nM protease; 1.5 hours; FIG. 21
T1 construct: Tobacco Etch Virus protease
Description: (§2) Next the protease activity sensor was incubated with GzmB and either MMP8 or one of two viral proteases (West Nile Virus NS3 protease and Tobacco Etch Virus protease) to show the AND-gate sensor can distinguish immune activity in tumors from viral infections (FIG. 21). The sensor produced low signals with the viral proteases compared to MMP8.
as §1

[3] = biological target: T2, GzmB (Homo sapiens, UniProt P10144) and West Nile Virus NS3 protease; assay: Incubation of GzmB/MMP AND-gate sensor with GzmB and West Nile Virus NS3 protease; assay type: biochemical; conditions: sensor 5 μM; 300 nM GzmB and 100 nM protease; 1.5 hours; FIG. 21
T2 construct: West Nile Virus NS3 protease
Description: as §2, §1

[4] = biological target: T3, GzmB in supernatant of OT1 T-cell co-incubation with EL4 or EG7-OVA cells, and Thrb (UniProt P00734+P04187); assay: Cleavage assay with supernatant of transgenic T-cell killing assay as GzmB source, plus Thrb; assay type: cell-based, mice; conditions: nanoparticle-conjugated sensor 1 μM; 10% supernatant from EL4 and EG7-OVA co-incubation and/or 3.7 Thrb; 12 hours; FIG. 17
T3 construct: using the supernatant as a GzmB source and adding Thrb; endogenous in cells; host or cells: T cells from OT1 mice co-incubated with EL4 or EG7-OVA cells; supernatant used at 10%
Description: FIGS. 15-17 show an example of the disclosed AND-gate protease activity sensors used with a living system. The sensors were evaluated in an in vitro transgenic T-cell killing assay in which cytotoxic T-cells taken from OT1 mice were co-incubated with target cells EL4 and EG7-OVA (FIG. 15). OT1 T cells can recognize the OVA antigen and mount an immune response, so the T-cells would theoretically respond to the EG7-OVA cells but not to the EL4 cells. Supernatant was harvested from the co-incubation and quantified the immune response by GzmB secretion using ELISA (FIG. 16). The concentration was measured after overnight co-incubation at 37° C. with target cells, as measured by ELISA, n=3. It was confirmed that co-incubation of OT1 cells with EG7-OVA cells, but not with EL4 cells, increases GzmB secretion by OT1 cells.
Then we cleavage assays were run with the AND-gate sensors, using the supernatant as a GzmB source and adding Thrb. […] Data for EL4 and EG7-OVA were normalized by subtraction of trace using OT1-only supernatant, and data for EL4+Thrb and EG7-OVA+Thrb were normalized by subtraction of trace using OT1-only supernatant and Thrb.

[5] = system: GzmB and Thrb; assay: Cleavage assay of GzmB/Thrb AND-gate sensor with GzmB and/or Thrb; assay type: biochemical
Description: Next, the AND-gate logic protease sensor was tested in a cleavage assay.
Thus, the presence of even small amounts of a protease can be detected if the other protease is also present. FIGS. 13-14 show: mean change in fluorescence after incubation of the AND-gate sensor with (FIG. 13) 9.2 nM Thrb and varying concentrations of GzmB (0-150 nM) or (FIG. 14) 300 nM GzmB and varying concentrations of Thrb (0-4.6 nM) for 2 hours, n=2. For all fluorescent readings, samples were excited at 485 nm, emission was measured at 528 nm, and samples were incubated at 37° C.

T3 sequence (P04187 21-247, one chain of several): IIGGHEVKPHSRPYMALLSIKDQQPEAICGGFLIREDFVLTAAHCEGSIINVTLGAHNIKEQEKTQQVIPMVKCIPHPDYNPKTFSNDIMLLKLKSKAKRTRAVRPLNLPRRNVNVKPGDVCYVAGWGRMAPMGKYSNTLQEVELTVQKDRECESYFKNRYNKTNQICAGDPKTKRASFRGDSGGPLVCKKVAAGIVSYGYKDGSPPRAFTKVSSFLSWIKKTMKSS
T1 sequence (P10144 21-247): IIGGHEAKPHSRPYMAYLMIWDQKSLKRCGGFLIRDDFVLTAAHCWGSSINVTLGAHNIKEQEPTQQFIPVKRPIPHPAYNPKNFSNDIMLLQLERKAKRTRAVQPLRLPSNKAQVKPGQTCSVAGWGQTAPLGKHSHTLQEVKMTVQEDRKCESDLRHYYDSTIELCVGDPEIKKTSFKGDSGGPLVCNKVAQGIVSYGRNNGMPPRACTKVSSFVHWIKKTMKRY
T2 sequence (P10144 21-247): as above

Row | Substance | change of fluorescent signal on addition of GzmB to MMPs [1] | signal with GzmB and Tobacco Etch Virus protease compared to MMP8 [2] | signal with GzmB and West Nile Virus NS3 protease compared to MMP8 [3] | signal (mean change in fluorescence) with T-cell co-incubation supernatant [4] | sensitivity of fluorescence to protease concentration ([5]; 9.2 nM Thrb with 0-150 nM GzmB, or 300 nM GzmB with 0-4.6 nM Thrb, 2 hours, FIGS. 13-14) | fluorescent signal, both proteases present together ([5]; nanoparticle-conjugated sensor 1 μM, 125 nM GzmB and 3.7 nM Thrb, 12 hours, FIG. 12) | fluorescent signal, either protease present alone ([5]; nanoparticle-conjugated sensor 1 μM, 125 nM GzmB or 3.7 nM Thrb, 12 hours, FIG. 12)
1 | GzmB/MMP AND-gate sensor: AND-gate protease activity sensor (SEQ ID NO: 2) that probes both GzmB and MMPs (CGIEFDSGGKGAPAALRAAGGCK; MOD_RES (11)..(11) D-Gly) | drastically increased the fluorescent signal by over two-fold | low signals | low signals | – | – | – | –
2 | GzmB/Thrb AND-gate sensor: Disulfide-cyclized peptide (SEQ ID NO: 1) with DABCYL quencher, 5-FAM reporter, GzmB and Thrb substrates and an azide for click conjugation (KCGIEFDSGGKGG[dF]PRSGGGCK; disulfide 2-21 (inferred); also: DABCYL quencher, 5-FAM reporter, azide for click conjugation) | – | – | – | high signal was attained only when Thrb was added to the GzmB-high OT1/EG7-OVA supernatant | very sensitive to small changes in the concentration of both proteases even in the nanomolar range | high fluorescent signal | not when either protease is present alone
